# From patent US20030086869A1, “Methods and kits for diagnosing a pancreatic-based fat malabsorption disorder” (priority 2001, published 2003)
# Legend:
# Format in all cases: in vivo, human
# [1] = Malabsorption Blood Test (MBT): serum levels of PA and HA after oral PA and THA test breakfast meal in healthy control subjects; details: for delay before rise in serum concentration: 30 mg/kg PA and 30 mg/kg THA, liquid breakfast shake after 12-hour fast, FIG. 2; for peak serum level: 30 mg/kg PA and either 60 or 90 mg/kg THA oral at baseline; for concentration at 8 h: human, serum, read-out: serum level by eight hours post dose
# Procedure: (§1) Both whole post-absorptive serum and isolated chylomicron fractions of the serum are analyzed for fatty acid composition. Chylomicrons are isolated from plasma by centrifugation at d=1.006 g/ml for 30 minutes at 26,000 g (Hatch, F. T., et al., 1968; Adv. Lipid Res., 6:1-68). Total lipids are extracted from each specimen following the method of Bligh and Dyer (Bligh, E. G., et al., 1959; Can. J. Biochem., 37:911-917). Following transmethylation of the lipid extracts using BF3-methanol, fatty acid composition is determined using gas-liquid chromatographic (GLC) analysis using a Hewlett Packard GLC equipped with a flame ionization detector, an automatic 7673 sampler and […]×0.25 mm ID column composed of a 0.20 micron film of SP-2560 (Supelco, Bellefonte, Pa.) (Morrison, W., et al., 1964; J. Lipid Res. 5:600-608). The temperature is programmed to change from 140° C. to 240° C. at a rate of 4° C./minute. At the time of extraction, heptadecanoic methyl ester is added as an internal standard.
# Healthy control subjects between 18 and 50 years of age were selected. Exclusion criteria included: any chronic illness known to affect nutrient absorption, body mass index (BMI) <21 or >30 kg/m^2 (generally accepted healthy adult ranges), therapy with lipid lowering drugs, diabetes mellitus (NIDDM and IDDM), disorders associated with altered energy metabolism (e.g., hypothyroidism) and disinterest in participating in all three dosing experiments. This adult age range was selected for several reasons: (a) adult subjects are likely to remain committed to all three components of the study; (b) adults will understand the need to provide reliable feedback on taste and tolerance of the test breakfast meal and the entire malabsorption test procedure; and (c) adult subjects are able to plan the experimental day for full cooperation with the multiple phlebotomy events from 0700 to 1500 hours.
# Upon arrival at the study center, subjects had their weight and height measured and an experienced phlebotomist inserted a self-retaining intravenous catheter with a heparin lock for serial blood sampling. After initially drawing 2 milliliters of blood into a sterile syringe, the experimental blood sample (2 milliliters) was drawn and immediately stored in a 4-milliliter serum separator tube. Thereafter, the initial 2 milliliters of blood was infused back into the catheter followed by 2 milliliters of heparin flush. After the baseline blood samples were obtained, the subjects drank an approximately 8 to 12 ounce liquid test breakfast meal. This meal contained one to three doses of PA and THA in a random distribution. Subjects were asked to consume the test breakfast meal within five minutes. Thereafter, serial blood samples were obtained at regular intervals over a period ranging from 30 minutes to 24 hours. During the initial eight-hour period, subjects were permitted to ingest non-caloric and non-caffeinated beverages. A study protocol lunch of known fat content was provided and actual food intake was recorded. Ambulation was limited to maintain adherence to the 30 to 60 minute intervals in the blood sampling schedule. After completion of the blood sampling, the catheter was removed, a snack was offered, and the subjects were encouraged to consume a full meal. The lipid doses (mg/kg) of PA and THA used in this experiment were based on doses 10-fold higher than similar fats used to correct essential fatty acid deficiency in cystic fibrosis, and previous studies which used ^13C […] to qualitatively assess fat malabsorption in pancreatic disease (Rosenlund, M. L., et al., 1977;Pediatrics, 59:428-32; Wutzke, K. D., et al., 1999; J. Pediatr. Gastroenterol. Nutr., 29:148-54).
# Four healthy control subjects were administered a dose of 30 mg/kg PA and 30 mg/kg THA in the digestible composition (a liquid breakfast shake) after a 12-hour fast. Blood was drawn at baseline before consumption of the shake and then every 30 minutes thereafter until hour 6. […]
# [2] = MBT serum levels of PA and HA in subjects with CF and pancreatic insufficiency on and off pancreatic enzymes; details: for serum levels compared with healthy control subjects: subjects with CF taking pancreatic enzymes
# Procedure: as §1
# Subjects with CF and pancreatic insufficiency currently treated with pancreatic enzymes, aged greater than 8 years were recruited. Exclusion criteria included: forced expiratory volume of the lungs at 1 second (FEV1) <40%, a history of fibrosing colonopathy or significant bowel resection (>10 cm), mental retardation, significant neurological deficit, developmental disability and autism. Subjects are in their usual state of good health. This age range was selected because it includes children during active growth where information regarding degree of malabsorption leads to improved nutritional intervention and pancreatic enzyme therapy. Also, children greater than 8 years of age are mature enough to provide assent and feedback concerning acceptability and tolerance of the MBT.
# In the experiments shown in FIGS. 12 through 15, three subjects with CF were given either 30 mg/kg PA and 60 mg/kg THA (2 subjects) or 30 mg/kg PA and 90 mg/kg THA (1 subject) in a digestible composition consisting of a liquid breakfast shake after a 12 hour fast. The subjects were tested while they were taking their usual doses of pancreatic enzymes and then were tested again (more than one week later) when they were not taking pancreatic enzymes. Blood was sampled at baseline and then at hourly intervals from 2 to 8 hours and then sampled again at 24 hours. Subjects were fed a prepared lunchtime meal with a known quantity of fat (80 grams). The individual results for fat absorption for the 3 subjects with CF on enzymes are presented in FIG. 12 for PA and FIG. 13 for HA. For the same 3 subjects with CF off enzymes, the results for fat absorption are presented in FIG. 14 for PA and FIG. 15 for HA.
# Additional experiments were performed on six subjects with CF either on or off pancreatic enzyme treatment. The serum levels of PA and HA in these six subjects on and off pancreatic enzyme treatment are presented in FIG. 16 anf FIG. 17, respectively.
# [3] = MBT absorption of PA and HA prior to Orlistat in fifteen healthy subjects; details: PA 2.5 grams and THA 8.0 grams, FIG. 10, 11
# From the text: Fifteen healthy adult subject volunteers (9 women) 18 to 50 years of age were recruited through local advertisements. Exclusion criteria included: any chronic illness known to affect nutrient absorption, body mass index (BMI) of less than 21 or greater than 30 kg/m^2 (i.e., outside of generally accepted healthy adult ranges), therapy with lipid lowering drugs, diabetes mellitus (NIDDM, IDDM) and disorders associated with altered energy metabolism (e.g., hypothyroidism). This adult age range was selected because Orlistat is FDA approved in adults. In addition, adults are able to plan the experimental days for cooperation with four days of the research study diet, outpatient 72-hour stool collection and phlebotomy requirements. […]
# Subjects underwent a 12-hour fast from 2100 hours on day #1 of the study. […] Upon arrival at the study center on the morning of day #2, subjects had their weight and height measured, and an experienced phlebotomist inserted a self-retaining intravenous catheter with a heparin lock for serial blood sampling. […] The number and timing of blood samples was determined by the experiments in Example 1, and was expected to be six or fewer samples over an eight-hour or less time period. […]
# [4] = four healthy control subjects, 30 mg/kg PA and 60 mg/kg THA, FIG. 3A, 4, 5A
# [5] = four healthy control subjects, 30 mg/kg PA and 90 mg/kg THA, FIG. 6-8
# [6] = four healthy control subjects, FIG. 1 model
# [7] = four healthy control subjects, 30 mg/kg PA and either 60 or 90 mg/kg THA oral, FIG. 1 model
# [8] = subjects with CF off pancreatic enzymes
# [9] = subjects with CF on pancreatic enzymes
delay before rise in serum concentration ([1]; four healthy control subjects),"time at which increase in serum level is evident / begins [1, 4]","time of peak serum level [1, 4]","time of peak serum level [1, 5]","peak serum level [1, 6]","time of peak serum level [1, 7]","time post-dose before serum level rises [1, 7]","concentration at 8 h [1, 7]","time up to which serum response continued to increase (sharp decrease after) ([1]; six healthy volunteers, PA 2.5 grams and THA 5.0 or 8.0 grams, FIG. 5B)","serum level response [2, 8]","delay before serum levels increased [2, 9]","time of peak serum level [2, 9]",serum levels compared with healthy control subjects [2],average absorption [3],"time at which increase in serum level is evident [1, 5]","hour by which serum levels increased [2, 8]","hour by which increase in absorption was evident [2, 9]",SMILES,"pattern of serum response ([1]; six healthy volunteers, PA 2.5 grams and THA 5.0 or 8.0 grams, FIG. 3B)"
3 to 4 h,3 h,6 h,6 h,approximately 3 mg/dL,6 h,two,~10000 ng/mL,6 h,no increase in serum levels,2 h,approximately 6 hours,lower,approximately 45%,,,,"CCCCCCCCCCCCCCCCC(=O)O [HA, heptadecanoic acid]",
approximately half,≤ 2 h,6 h,6 h,approximately 4 mg/dL,six,,~10000 ng/mL,,,,,lower,approximately 65%,≤ 2 h,≤ 2 h,≤ 2 h,"CCCCCCCCCCCCCCC(=O)O [PA, pentadecanoic acid]",increasing over the first two hours and remaining elevated through hour six
